How the values were obtained:
[1] = biological target: T1, P2X7 receptor (Homo sapiens, UniProt Q99572); experiment: IL-1β release assay in differentiated THP-1 cells (Example 9); type: cell-based; conditions: THP-1 cells differentiated with LPS and IFN-γ; 30 min pretreatment; BzATP 250 uM; IL-1β by ELISA
T1 construct: host or cells: THP-1 cells differentiated with LPS and IFN-γ
T1 sequence (Q99572 1-595): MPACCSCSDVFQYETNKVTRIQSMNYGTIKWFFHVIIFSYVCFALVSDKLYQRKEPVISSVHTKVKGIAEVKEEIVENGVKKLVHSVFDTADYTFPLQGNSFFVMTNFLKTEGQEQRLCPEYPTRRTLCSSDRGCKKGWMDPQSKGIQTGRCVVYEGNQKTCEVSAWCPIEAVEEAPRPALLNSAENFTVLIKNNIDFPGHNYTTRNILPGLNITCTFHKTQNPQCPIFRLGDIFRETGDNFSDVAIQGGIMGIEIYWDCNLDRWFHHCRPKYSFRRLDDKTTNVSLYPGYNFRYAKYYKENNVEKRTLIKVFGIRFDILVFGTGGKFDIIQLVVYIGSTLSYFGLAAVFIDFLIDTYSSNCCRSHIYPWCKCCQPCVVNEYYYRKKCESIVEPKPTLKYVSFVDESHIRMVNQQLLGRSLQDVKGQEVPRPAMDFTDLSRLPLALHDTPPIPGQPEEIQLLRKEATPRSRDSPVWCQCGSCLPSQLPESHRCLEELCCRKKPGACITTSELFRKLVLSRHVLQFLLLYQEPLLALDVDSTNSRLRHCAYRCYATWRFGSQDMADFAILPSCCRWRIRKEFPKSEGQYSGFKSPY
Method: THP-1 cells (ATCC Cat #285-IF-100) are plated in 96 well plates at a concentration of 200,000 cells per well and allowed to differentiate in RPMI-1640 media (ATCC Cat #30-2001) containing 10% FBS, 100 IU/mL penicillin, 100 ug/mL streptomycin, 100 ng/mL LPS and 100 ng/mL IFN-γ for 16 hours. Following differentiation, the cells are treated for an additional 2 hours in RPMI-1640 media containing 100 IU/mL penicillin, 100 ug/mL streptomycin and fresh LPS at 100 ng/mL. The cells are then pretreated for 30 minutes with the compound of interest at the appropriate concentration in RPMI media containing 100 IU/mL penicillin, 100 ug/mL streptomycin. Following the pretreatment 2′,3′-O-(4-benzoylbenzoyl)-adenosine 5′-triphosphate (Sigma Aldrich Cat # B6396) is added to a final concentration of 250 uM, and the cells are incubated for an additional 45 minutes. 30 uL of cell supernatant is then collected and IL-1β levels are determined via ELISA (R&D systems Cat. # HSLB50) according to manufacturer's recommendations using a Tecan Safire plate reader. Background adjusted IL-1β levels of drug treated and non-treated cells are used to calculate the percent inhibition.
The following compounds have been or can be prepared according to the synthetic methods described herein for example, methods A-AA1. The compounds set forth in Table 1 were tested for activity in a cellular model as described herein. Specifically, cells were pretreated with differing amounts of the compound under test and released IL-1β determined as in Example 9, above. Measurements were made and IC50 values, presented in Table 1, below, were determined by fitting the data to a four parameter logistic equation using GraphPad Prism software (GraphPad Software, Inc). The equation may be expressed by the following formula: Y=Bottom+(Top−Bottom)/(1+10^((Log EC50−X)*HillSlope)) where X is the logarithm of concentration, Y is the response and Y starts at Bottom and goes to Top with a sigmoid shape.

[2] = Half-life in human liver microsomes (HLM); type: in vitro ADME; conditions: human liver microsomes 0.78 mg/mL, 1 μM compound, NADPH, 37° C.; for half-life at 1 μM: pH 7.4
Method: Half-Life in Human Liver Microsomes (HLM)
Test compounds (1 μM) are incubated with 3.3 mM MgCl2 and 0.78 mg/mL HLM (HL101) in 100 mM potassium phosphate buffer (pH 7.4) at 37° C. on the 96-deep well plate. The reaction mixture is split into two groups, a non-P450 and a P450 group. NADPH is only added to the reaction mixture of the P450 group. An aliquot of samples of P450 group is collected at 0, 10, 30, and 60 min time point, where 0 min time point indicated the time when NADPH is added into the reaction mixture of P450 group. […] Collected aliquots are extracted with acetonitrile solution containing an internal standard. […] The compound concentration in supernatant is measured by LC/MS/MS system.
The half-life value is obtained by plotting the natural logarithm of the peak area ratio of compounds/internal standard versus time. The slope of the line of best fit through the points yields the rate of metabolism (k). This is converted to a half-life value using following equations: Half-life=ln 2/k

[3] = Pharmacokinetic evaluation following intravenous and oral administration in rats; type: in vivo, rat; conditions: male Sprague-Dawley rats; PO 1 to 5 mg/kg vs IV 1 mg/kg; AUCinf(PO)/AUCinf(IV) dose-normalized
Method: Pharmacokinetic Evaluation of Compounds Following Intravenous and Oral Administration in Rats.
Male Sprague-Dawley rats are acclimated for at least 24 hours prior to experiment initiation. During the acclimation period, all animals receive food and water ad libitum. However, food but not water is removed from the animals' cages at least 12 hours before initiation of the experiment. During the first 3 hours of experimentation, the animals receive only water ad libitum. At least three animals each are tested for intravenous and oral dosage. For intravenous formulation, compounds are dissolved (0.25 to 1 mg/mL) in a mixture of 3% dimethyl sulfoxide, 40% PEG 400 and the rest percentage of 40% Captisol in water (w/v). The animals are weighed before dosing. The determined body weight is used to calculate the dose volume for each animal. Dose volume (mL/kg)=1 mg/kg/formulation concentration (mg/mL)
In instances where the formulation concentrations are less than 0.5 mg/mL, the dosing volume is about 2 mL/kg.
For oral formulation, compounds of this invention are suspended (0.5 to 0.75 mg/mL) in a mixture of 5% of 10% Tween 80 in water (v/v) and 95% of 0.5% methyl cellulose in water (w/v). PO rats are typically dosed through oral gavage following the same dose volume formula as IV to achieve a dose level of 1 to 5 mg/kg. For IV dosing, blood samples are collected (using a pre-heparinized syringe) via the jugular vein catheter at 2, 5, 15, 30, 60, 120, 180, 300, 480, and 1440 minutes post dosing. For PO dosing blood samples are collected (using a pre-heparinized syringe) via the jugular vein catheter before dosing and at 5, 15, 30, 60, 120, 180, 300, 480, and 1440 minutes post dosing. About 250 uL of blood is obtained at each time point from the animal. Equal volumes of 0.9% normal saline are replaced to prevent dehydration. The whole blood samples are maintained on ice until centrifugation. Blood samples are then centrifuged at 14,000 rpm for 10 minutes at 4° C., and the upper plasma layer is then transferred into a clean vial and stored at −80° C. The resulting plasma samples are then analyzed by liquid chromatography-tandem mass spectrometry. Following the measurement of plasma samples and dosing solutions, plasma concentration-time curve is plotted. Plasma exposure is calculated as the area under the concentration-time curve extrapolated to time infinite (AUCinf). The AUCinf is averaged and the oral bioavailability (% F) for individual animal is calculated as: • AUCinf(PO)/AUCinf(IV), normalized to their respective dose levels.
The % F can be reported as the mean % F of all animals dosed orally with the compound of the invention at the specified level.
For the purpose of Table 3, the oral bioavailability of each compound is expressed as follows: […]

[4] = Plasma protein binding by equilibrium dialysis, human plasma; type: in vitro ADME; conditions: pH 7.4, equilibrium dialysis 16 hr at 37° C., % Bound
Method: The plasma protein binding of compounds of invention is measured in human and rat plasma, respectively. A stock solution of the tested compound is prepared in 1 mg/mL in DMSO solution. The stock solution is spiked into the blank plasma to get a final compound concentration at 1 μg/mL for testing. Equilibrium dialysis (The equilibrium dialyzer-96TM MWCO 5K Daltons, Harvard Apparatus) method is used for the testing purpose.
The compound spiked plasma (at […]) and phosphate buffer (0.1 M, pH 7.4), 200 μl each, are added into the opposite sides of the membrane in a 96-well equilibrium dialyzer, respectively. The dialyzer plate is covered and incubated overnight (16 hr) at 37° C. in the 8-plate rotor incubator (Big Shot III 8-plate rotor, Harvard Apparatus). Aliquots (100 μL) are taken from the plasma and the buffer compartments, respectively. The matrix effects are eliminated by adding the same volume of blank plasma into the samples from buffer compartments and adding the same volume of phosphate buffer into the samples from plasma compartments. The samples are extracted by using the regular (3:1) protein precipitation extraction procedure (acetonitrile with internal standard). The supernatants are taken for LC/MS/MS analysis. The percentage of plasma-protein binding can be calculated by using the following method: % Free=[Free Drug/Total Drug]*100=[(Peak Area)buffer/(Peak Area)plasma]*100 % Bound=100−% Free.
For the purpose of Table 4, the plasma protein binding of each compound is expressed as follows: […]

Row | Structure (SMILES) | IC50 [1] [nM] | half-life at 1 μM [2] [h] | Oral Bioavailability F (%) [3] | Half Life [2] [h] | fraction unbound at 16 hr, 1 μg/mL [4]
1 | C[C@H](C(N)=O)n1ccc2c(NC(=O)CC34CC5CC(CC(C5)C3)C4)c(Cl)ccc2c1=O [Compound 2] | 0.1 | 0.8 | + (0-25% F) | – | –
2 | C[C@H](C(N)=O)n1ccc2c(NC(=O)Cc3cccc(C(F)(F)F)c3F)c(Cl)ccc2c1=O [Compound 5, (R)-2-{6-Chloro-5-[2-(2-fluoro-3-trifluoromethyl-phenyl)-acetylamino]-1-oxo-1H-isoquinolin-2-yl}-propionamide] | 7 | – | + (0-25% F) | 1.2 | –
3 | C[C@H](CO)n1ccc2c(NC(=O)Cc3ccc(F)c(C(F)(F)F)c3)c(Cl)ccc2c1=O [Compound 13, N-[6-Chloro-2-((R)-2-hydroxy-1-methyl-ethyl)-1-oxo-1,2-dihydro-isoquinolin-5-yl]-2-(4-fluoro-3-trifluoromethyl-phenyl)-acetamide] | 0.4 | – | – | 1.0 | < 0.1
4 | Cc1ccc2c(=O)n([C@H](C)CO)ccc2c1NC(=O)Cc1ccc(C(F)(F)F)c(F)c1 [Compound 21, N-[6-Methyl-2-((R)-2-hydroxy-1-methyl-ethyl)-1-oxo-1,2-dihydro-isoquinolin-5-yl]-2-(3-fluoro-4-trifluoromethyl-phenyl)-acetamide] | 0.4 | – | – | 1.5 | < 0.1
5 | Cc1ccc2c(=O)n([C@H](C)CO)ccc2c1NC(=O)Cc1cccc(C(F)(F)F)c1F [Compound 23, 2-(2-Fluoro-3-trifluoromethyl-phenyl)-N-[2-((R)-2-hydroxy-1-methyl-ethyl)-6-methyl-1-oxo-1,2-dihydro-isoquinolin-5-yl]-acetamide] | 11 | 1.4 | – | – | < 0.1
6 | Cc1ccc2c(=O)n([C@H](C)CO)ccc2c1NC(=O)Cc1ccc(C(F)(F)F)cc1 [Compound 25, N-[2-((R)-2-Hydroxy-1-methyl-ethyl)-6-methyl-1-oxo-1,2-dihydro-isoquinolin-5-yl]-2-(4-trifluoromethyl-phenyl)-acetamide] | 6 | 4.6 | – | – | 0.1 to 0.24
7 | Cc1ccc2c(=O)n(CCO)ccc2c1NC(=O)Cc1ccc(C(F)(F)F)c(F)c1 [Compound 28, 2-(3-Fluoro-4-trifluoromethyl-phenyl)-N-[2-(2-hydroxy-ethyl)-6-methyl-1-oxo-1,2-dihydro-isoquinolin-5-yl]-acetamide] | 9 | – | – | 3.7 | < 0.1
8 | Cc1ccc2c(=O)n([C@H](C)CO)ccc2c1C(=O)NCc1ccc(C(F)(F)F)c(F)c1 [Compound 40, 2-((R)-2-Hydroxy-1-methyl-ethyl)-6-methyl-1-oxo-1,2-dihydro-isoquinoline-5-carboxylic acid 3-fluoro-4-trifluoromethyl-benzylamide] | 3 | 2.6 | – | – | 0.1 to 0.24
9 | C[C@H](CO)n1ccc2c(C(=O)NCc3ccc(C(F)(F)F)c(F)c3)c(Cl)ccc2c1=O [Compound 41, 6-Chloro-2-((R)-2-hydroxy-1-methyl-ethyl)-1-oxo-1,2-dihydro-isoquinoline-5-carboxylic acid 3-fluoro-4-trifluoromethyl-benzylamide] | 7 | 3 | – | – | < 0.1
10 | Cc1ccc2c(=O)n([C@H](C)CO)ccc2c1C(=O)NCc1cccc(C(F)(F)F)c1 [Compound 42, 2-((R)-2-Hydroxy-1-methyl-ethyl)-6-methyl-1-oxo-1,2-dihydro-isoquinoline-5-carboxylic acid 3-trifluoromethyl-benzylamide] | 7 | 0.8 | – | – | < 0.1
11 | C[C@H](CO)n1ccc2c(C(=O)NCC3(O)CCC(C(F)(F)F)CC3)c(Cl)ccc2c1=O (stereo partly drawn) [Compound 56, 6-Chloro-2-((R)-2-hydroxy-1-methyl-ethyl)-1-oxo-1,2-dihydro-isoquinoline-5-carboxylic acid (1-hydroxy-4-trifluoromethyl-cyclohexylmethyl)-amide] | 9 | 0.7 | – | – | 0.25 to 0.49
12 | C[C@H](CO)n1ccc2c(C(=O)NCC3(O)CCC4(CC3)CC4(F)F)c(Cl)ccc2c1=O (stereo partly drawn) [Compound 65] | 0.3 | 0.62 | – | – | 0.25 to 0.49
13 | C[C@H](CO)n1ccc2c(C(=O)NCC3(O)CCC(F)(F)CC3)c(Cl)ccc2c1=O [Compound 68] | 3 | 0.65 | – | – | 0.25 to 0.49
